One data set deals with schistosomiasis parasite. To be noted: cited from earlier work.
For data set [1], the system named is Leishmania donovani MHOM-ET-67/L82 strain. In words: Antiprotozoal activity against L. donovani. The data set is classed as cell-based. The following applies: read-out: IC50 L. donovani.
The nature of a further data set: Cytotoxicity. The data set is classed as cell-based. The following applies: rat.

We go through three molecules from article PMC4128413 (Tetrahedron letters, 2014).

As to `O=C(C1CCC(O)CC1)N1CC(=O)N2CCc3ccccc3C2C1` (stereo not drawn) [Compound 2], the “antischistosomal effectiveness relative to praziquantel (1) (in words)” value in the data set with schistosomiasis parasite is recorded as “equal to or considerably less effective than the parent drug”.
On to `CCCCCCCCCCCCCCCCOP(=O)([O-])OCC[N+](C)(C)C` [Miltefosine], for which, in data set [1], the IC50 (as a rule, the concentration needed to halve the response being measured) was 340 nM.
`COc1cc([C@@H]2c3cc4c(cc3[C@H](O)[C@H]3COC(=O)[C@H]23)OCO4)cc(OC)c1OC` [Podophyllotoxin] returned an IC50 in the data set “Cytotoxicity” of 7.2 nM.
